Measured values taken from patent US20050038259A1, “Hydroxyeicosenoic acid anaglogs” (priority 2001, published 2005).

Tests used:
Rat neutrophils = assay: Test for elastase production by fMLP stimulation (elastase release inhibition); format: cell-based; details: Neutrophil; elastase release from cytochalasin B-primed rat neutrophils stimulated with fMLP (1 μM); elastase activity in supernatant
Procedure: Rat neutrophils preparation was obtained 15-18 hrs after intraperitoneal injection of a 1% sterile casein solution in saline (120 mL/kg). Cells were harvested by peritoneal lavage after the decapitation. The lavage fluid was ice-cold PBS (Phosphate-Buffered Saline). Peritoneal exudates were pooled, centrifuged and suspended in HBSS (Hanks' Balanced Salt Solution) at 1×10^7 cells/mil. Cytochalasin B (final concentration: 5 μg/ml) were added to prime the cells. The cells were added into a 96-well culture plate (190 μL/well) and then the compounds of the present invention at various concentrations (10^−7 to 3×10^−5 M) were added and incubated at 37° C. in an atmosphere of 5% CO2 in air. After 10 minutes, fMLP (20 μM, 10 μL) was added, while 10 μL of an HBSS solution containing 0.4% ethanol was added to the group to which no fMLP was added. After gently stirring, cells were incubated for further 10 minutes. The reaction was stopped on ice, and an incubated supernatant was recovered by centrifugation.
Elastase activity in the incubated supernatant was measured using a specific elastase substrate, N-succinyl-L-alanyl-L-alanyl-L-proline-valine-MCA (Peptide Institute, Inc., Osaka), 0.12 mM in 50 mM Tris-HCl (pH 8.0). Fifty microliter of an incubated supernatant was added to the substrate solution (50 μL) and incubated at 37° C. for 30 minutes. Elastase activity was assayed at a wavelength of 360 nm at excitation and 480 nm at emission.
Elastase release-inhibiting activity (inhibition ratio) was calculated according to the following equation: Inhibition ratio (%)={1−(A−C)/(B−C)}×100 wherein A stands for a fluorescence intensity when […]; and C stands for a fluorescence intensity when fMLP (1 μM) was not added.
Inhibitory concentration of 50% (IC50 value) of the compound of the invention was calculated with a concentration-inhibition ratio curve.

[1] = test system: Rat transient MCA occlusion (t-MCAo) model; assay: Infarct volume in rat transient MCA occlusion (t-MCAo) model; format: in vivo; details: intravenous 1 hour infusion immediately after reperfusion
Procedure: FIG. 1 represents an effect of the compound 50 on infarct volume in rat t-MCAo model. The infarct volumes of total (closed bar), cortex (solid bar) and sub-cortex (open bar) were determined 71 hrs after reperfusion. Data are presented as mean ±SEM. *p<0.05 vs vehicle-treated group (Dunnett's test).
Adult male Wistar rats (200-250 g) were anesthetized with 2% halothane in air. The right internal carotid artery (ICA) was carefully dissected. A silicon-coated suture (18 mm-long) was inserted to the ICA. Body temperature was maintained at 37° C. with a heating pad. […] After 1 hour of MCA occlusion, the thread was removed to allow reperfusion of the ischemic area. Rats were received intravenously 1 hour-infusion of vehicle (10% of HP-β-CD) or the compound 50 dissolved in vehicle immediately after reperfusion.
To measure infarct volume, rats were killed at 71 hours of reperfusion. Brains were perfused transcardially with physiological saline, and removed from skulls, cut into 2-mm coronal sections. The slices were immersed in 2% triphenyltetrazolium chloride (TTC) solution at 37° C. for 30 minutes.
All values were presented as mean ±SEM. For statistical analyses, Dunnett's multiple-range test was used.

Row | Structure (SMILES) | IC50 (Rat neutrophils) [µM] | reduction of total infarct volume as compared with vehicle-treated group ([1]; 0.01 mg/kg/min, 71 hours of reperfusion, significant) [%] | effect on infarct volume ([1]; from 0.001 mg/kg/min, doses 0.001, 0.01, 0.1 mg/kg/min)
1 | CCCC[C@@H](O)C#CCCCCCCCCCCCCCC(=O)O [Compound 4, (R)-17-Hydroxyheneicos-15-ynoic acid] | 10.3 |  | 
2 | CCCC[C@@H](O)C#CCCCCCCCCCCCCC(=O)O [Compound 12, (R)-16-Hydroxyeicos-14-ynoic acid] | 9.18 |  | 
3 | CCCC[C@@H](O)/C=C\CCCCCCCCCCCCC(=O)O [Compound 50, (R)-(Z)-16-Hydroxyeicos-14-enoic acid] | 8.29 | 35.3 | reduced the infarct volume
4 | CCCC[C@@H](O)/C=C\CCCCCCCCCCCC(=O)O [Compound 65, (R)-(Z)-15-Hydroxynonadec-13-enoic acid] | 17.5 |  | 
